Measured values from article PMC12648443, “Modifications of NU-9, a potent protein aggregation inhibitor. Properties and activity in a cellular model of amyotrophic lateral sclerosis” (Bioorganic chemistry, 2025).

Test system: HT22 hippocampal cells
Assay: DAPRed autophagy dye live cell imaging
Assay type: cell-based, mouse
Details: 3 μM, 5 h treatment, bafilomycin 0.1 μM in the last 3 h
Experimental: HT22 immortalized mouse hippocampal neuronal cell line was maintained in DMEM supplemented with 10% FBS and 1% penicillin-streptomycin under standard conditions (37 °C, 5% CO2). On the day before the experiment, HT22 cells were transferred to a sterile poly-D-lysine-coated Nunc™ Lab-Tek™ II Chambered Coverglass (8 wells; Thermo Fisher Sci. cat. 155,409) at a concentration of 40,000 cells/300 μL of media in each well and incubated overnight at 37 °C. Stock solutions of Torin-1 (10 mM) and 20 (10 mM) were prepared in DMSO and then diluted in media to obtain the final treatment solutions at 0.2 and 3 μM, respectively. The media was removed, the cells were quickly washed with 1×PBS solution, and fresh media containing the compounds or the DMSO (0.1 % v/v) were transferred to the wells. The plates were incubated for 2 h. The media was removed, and after washing once with 1×PBS, fresh media containing Bafilomycin (0.1 μM), DAPRed dye (0.25 μM) and Hoescht 33,342 (55 μg/mL) was added to the wells and the cells were incubated for 3 h at 37 °C. […] Puncta structures >0.2 μm were then identified using Otsu thresholding and the results represented as particles per cell for each set of images analyzed. […] The statistical differences between two or more groups were determined by One-way ANOVA followed by Sidak post-hoc multiple-comparison test. […]

CC(C)(Oc1cc(C(F)(F)F)cc(C(F)(F)F)c1)C1CC(=O)CC(=O)C1 [Compound 20, 5-(2-(3,5-bis(trifluoromethyl)phenoxy)propan-2-yl)cyclohexane-1,3-dione]
DAPRed fluorescence signal (autophagy flux) compared to vehicle: increasing DAPRed fluorescence signal
